Publication PMC4876444, “Two-Photon Enzymatic Probes Visualizing Sub-cellular/Deep-brain Caspase Activities in Neurodegenerative Models” (Scientific Reports, 2016)

Key:
[1] = tested on: caspase-3-like activities in STS-induced BV2 and HeLa cells; test: TPFM live-cell imaging of STS-induced apoptotic cells; assay type: cell-based, mouse, human; details: BV2 (STS 2 μM) and HeLa (STS 1 μM) cells, 4 h STS, probe 24 μM 1 h; not in mock cells
Method: Figure 3 Bioimaging of active caspases in live cells. TPFM (λex = 760 nm; λem = 480-550 nm for all AAN-probes) of STS-induced (a) BV2 cells (2 μM, 4 h) and (b) HeLa cells (1 μM, 4 h) using C3RA/C8RA (24 μM, 1 h). Panels 3/6: cells pretreated with Z-VAD(OMe)-FMK (50 μM, 1 h) before STS addition. Panels 1/4: normal cells (DMSO). (c) WB analysis of cleaved caspase-3/-8 from (a,b). (d) TPFM of normal/apoptotic Hela cells imaged by C3RA (24 μM, up) or Ac-DEVD-AMC (40 μM, down; λem = 420–500 nm). Panels 1/3: normal cells. Panels 2/4: STS-induced cells (1 μM, 4 h). Bottom inset: bright field. Top inset: one-photon images (λex = 405 nm). (e) Real-time imaging of caspase-3/-8-like activities in live BV2 cells using 24 μM of C3RA (top)/C8RA (bottom) upon STS (2 μM) stimulation over 2 h. (f) Graphical quantification of RFU extracted from (e). (g) WB analysis of time-dependent caspase-3/-8 cleavage from STS-induced (2 μM) BV2 lysates. (h) WB analysis of time-dependent caspase-3/-7/-8 activation by detection of cleaved caspase-3/-7/-8 from lysates of HeLa cells stimulated with STS (2 μM). (i) RFU from real-time imaging of caspase-3-like activity in live HeLa cells with C3RA/C3RM/C3RE (24 μM, added 1 h before STS) upon STS (2 μM) stimulation. (j) Representative images (t = 60 min) from (i). (k) IF of STS-stimulated (2 μM, 2 h) HeLa cells by anti-caspase-3 (p17) antibody (red) with 3D projections of z-stack images at 90° view and merged with MitoTracker (green, left) or ER tracker (cyan, right). (l) TPFM of caspase-1 activation in primary cortical neurons upon glucose deprivation (GD, 8 h) followed by 1-h incubation with C1RB (24 μM) or C1FS (12 μM; λem = 450–550 nm). Inset: bright field images. NC: neuron cells incubated in normal neurobasal medium. Scale bar = 10 μm in all images.
NIH/3T3, HeLa and BV2 cell lines used in our experiments were cultured in DMEM medium supplemented with 10% (for NIH/3T3 and HeLa) or 5% (for BV2) fetal bovine serum (FBS), with 100.0 mg/L streptomycin and 100 IU/mL penicillin. […]

Which results are given for `CC(=O)N[C@@H](CC(=O)O)C(=O)N[C@@H](CCC(=O)O)C(=O)N[C@H](C(=O)N[C@@H](CC(=O)O)C(=O)Nc1ccc2cc(C(C)=O)ccc2c1)C(C)C` [C3RA, Ac-DEVD-AAN]?
λem (emission maximum): 448 nm; intracellular two-photon fluorescence after STS treatment [1]: strong intracellular fluorescence
